Experiments:
Test in all cases: product formation, stir-bar GC-MS, recombinant E. coli protein
Type in all cases: cell-based
CsTPS19 = biological target: T1, CsTPS19 (Cucumis sativus, UniProt A0A0A0L6G4); settings: 30 °C, 60 min; 10 µM substrate
T1 construct: gene Csa_3G095040; full-length cDNA in pACYCDuet, E. coli BL21(DE3); cytosolic

CsTPS12 = biological target: T2, CsTPS12 (Cucumis sativus, UniProt A0A0A0LN25); settings: 30 °C, 60 min; 10 µM substrate
T2 construct: gene Csa_2G427840; full-length cDNA in pACYCDuet, E. coli BL21(DE3); no targeting peptide predicted
T2 sequence (A0A0A0LN25 1-565): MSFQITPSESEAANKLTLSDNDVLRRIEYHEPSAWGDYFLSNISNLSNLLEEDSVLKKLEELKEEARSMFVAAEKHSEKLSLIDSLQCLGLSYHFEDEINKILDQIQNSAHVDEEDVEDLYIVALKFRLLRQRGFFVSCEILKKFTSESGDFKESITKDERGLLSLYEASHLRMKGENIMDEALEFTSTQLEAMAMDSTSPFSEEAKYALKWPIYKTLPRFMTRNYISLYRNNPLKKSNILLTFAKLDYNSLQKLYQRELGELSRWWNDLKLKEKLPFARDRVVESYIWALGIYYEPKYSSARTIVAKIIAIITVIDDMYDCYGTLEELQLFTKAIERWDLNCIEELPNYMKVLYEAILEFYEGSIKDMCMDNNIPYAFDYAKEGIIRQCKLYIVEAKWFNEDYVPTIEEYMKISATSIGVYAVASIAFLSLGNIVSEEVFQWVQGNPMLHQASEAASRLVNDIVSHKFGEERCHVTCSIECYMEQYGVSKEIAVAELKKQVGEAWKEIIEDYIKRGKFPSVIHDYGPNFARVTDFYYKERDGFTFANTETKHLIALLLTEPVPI

CsTPS22 = biological target: T3, CsTPS22 (Cucumis sativus, UniProt A0A0A0L2I8); settings: 30 °C, 60 min; 10 µM substrate
T3 construct: gene Csa_3G097540; full-length cDNA in pACYCDuet, E. coli BL21(DE3)
T3 sequence (A0A0A0L2I8 1-558): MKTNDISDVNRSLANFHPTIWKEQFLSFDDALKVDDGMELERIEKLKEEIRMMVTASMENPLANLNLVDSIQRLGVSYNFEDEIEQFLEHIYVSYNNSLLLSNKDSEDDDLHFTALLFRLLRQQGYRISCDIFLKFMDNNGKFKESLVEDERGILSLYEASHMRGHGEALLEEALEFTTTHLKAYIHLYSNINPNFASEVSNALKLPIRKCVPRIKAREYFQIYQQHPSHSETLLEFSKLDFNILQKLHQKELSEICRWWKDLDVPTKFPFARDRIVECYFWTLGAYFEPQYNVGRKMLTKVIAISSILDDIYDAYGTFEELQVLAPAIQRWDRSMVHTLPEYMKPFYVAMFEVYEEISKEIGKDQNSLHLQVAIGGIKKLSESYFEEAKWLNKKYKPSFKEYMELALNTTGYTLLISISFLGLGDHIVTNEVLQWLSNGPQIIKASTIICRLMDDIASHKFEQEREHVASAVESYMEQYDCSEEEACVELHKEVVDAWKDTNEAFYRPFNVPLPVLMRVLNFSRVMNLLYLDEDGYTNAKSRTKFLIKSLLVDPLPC

CsTPS24 = biological target: T4, CsTPS24 (Cucumis sativus, UniProt Q9FRX5); settings: 30 °C, 60 min
T4 construct: gene CsKS1; full-length cDNA in pACYCDuet, E. coli BL21(DE3); gene on chromosome VII; predicted plastid transit peptide
T4 sequence (Q9FRX5 1-785): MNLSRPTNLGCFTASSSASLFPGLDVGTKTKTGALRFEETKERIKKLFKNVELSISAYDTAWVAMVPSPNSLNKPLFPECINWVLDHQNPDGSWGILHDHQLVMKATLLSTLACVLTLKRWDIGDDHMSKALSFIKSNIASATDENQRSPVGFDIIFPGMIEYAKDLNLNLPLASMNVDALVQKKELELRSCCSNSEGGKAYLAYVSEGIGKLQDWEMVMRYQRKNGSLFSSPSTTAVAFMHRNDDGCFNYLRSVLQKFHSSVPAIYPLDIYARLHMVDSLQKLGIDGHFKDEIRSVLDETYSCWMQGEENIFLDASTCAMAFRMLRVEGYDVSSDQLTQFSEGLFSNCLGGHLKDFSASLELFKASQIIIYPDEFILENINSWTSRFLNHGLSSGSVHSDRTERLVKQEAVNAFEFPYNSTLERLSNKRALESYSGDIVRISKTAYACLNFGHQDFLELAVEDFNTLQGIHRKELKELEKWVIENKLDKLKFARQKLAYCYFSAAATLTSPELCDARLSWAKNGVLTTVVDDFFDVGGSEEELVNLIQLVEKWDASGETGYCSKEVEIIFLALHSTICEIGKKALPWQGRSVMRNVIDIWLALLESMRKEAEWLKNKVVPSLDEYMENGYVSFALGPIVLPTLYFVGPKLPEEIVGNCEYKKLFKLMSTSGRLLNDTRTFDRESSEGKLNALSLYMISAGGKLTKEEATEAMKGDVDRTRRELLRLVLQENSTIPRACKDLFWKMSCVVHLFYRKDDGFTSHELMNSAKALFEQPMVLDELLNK

CsTPS14 = biological target: T5, CsTPS14 (Cucumis sativus, UniProt A0A0A0L1X6); settings: 30 °C, 60 min; 10 µM substrate
T5 construct: gene Csa_3G039850; full-length cDNA in pACYCDuet, E. coli BL21(DE3); no targeting peptide predicted
T5 sequence (A0A0A0L1X6 1-562): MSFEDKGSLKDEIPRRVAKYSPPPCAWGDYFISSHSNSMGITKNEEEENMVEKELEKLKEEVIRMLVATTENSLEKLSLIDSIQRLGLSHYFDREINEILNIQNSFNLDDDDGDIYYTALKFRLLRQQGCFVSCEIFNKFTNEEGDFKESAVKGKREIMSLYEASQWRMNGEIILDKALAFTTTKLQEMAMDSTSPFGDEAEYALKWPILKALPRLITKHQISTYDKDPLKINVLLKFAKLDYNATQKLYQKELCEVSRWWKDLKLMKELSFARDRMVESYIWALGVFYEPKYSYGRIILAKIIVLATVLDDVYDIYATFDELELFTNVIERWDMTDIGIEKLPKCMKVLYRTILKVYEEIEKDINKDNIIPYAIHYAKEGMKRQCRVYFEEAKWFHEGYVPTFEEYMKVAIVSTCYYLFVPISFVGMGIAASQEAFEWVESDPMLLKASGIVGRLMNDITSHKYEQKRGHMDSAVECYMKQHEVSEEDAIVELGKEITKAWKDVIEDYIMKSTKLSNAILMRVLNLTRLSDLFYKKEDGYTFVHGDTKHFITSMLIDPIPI

CsTPS11 = biological target: T6, CsTPS11 (Cucumis sativus, UniProt A0A0A0LMX2); settings: 30 °C, 60 min; 10 µM substrate
T6 construct: gene Csa_2G299920; full-length cDNA in pACYCDuet, E. coli BL21(DE3); predicted plastid transit peptide
T6 sequence (A0A0A0LMX2 1-474): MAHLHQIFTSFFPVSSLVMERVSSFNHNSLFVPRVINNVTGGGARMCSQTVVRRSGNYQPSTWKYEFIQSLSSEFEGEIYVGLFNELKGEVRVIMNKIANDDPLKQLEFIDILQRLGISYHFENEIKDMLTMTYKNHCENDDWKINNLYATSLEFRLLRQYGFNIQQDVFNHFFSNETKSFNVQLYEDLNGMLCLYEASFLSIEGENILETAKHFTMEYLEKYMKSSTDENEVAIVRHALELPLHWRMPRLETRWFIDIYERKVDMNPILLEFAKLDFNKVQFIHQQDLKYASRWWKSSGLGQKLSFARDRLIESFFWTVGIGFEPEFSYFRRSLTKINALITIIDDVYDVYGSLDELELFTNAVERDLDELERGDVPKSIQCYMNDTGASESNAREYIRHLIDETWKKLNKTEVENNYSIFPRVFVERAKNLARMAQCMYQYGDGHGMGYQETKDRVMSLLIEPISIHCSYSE

CsTPS15 = biological target: T7, CsTPS15 (Cucumis sativus, UniProt A0A0A0L782); settings: 30 °C, 60 min; 10 µM substrate
T7 construct: gene Csa_3G040850; full-length cDNA in pACYCDuet, E. coli BL21(DE3); predicted plastid transit peptide
T7 sequence (A0A0A0L782 1-568): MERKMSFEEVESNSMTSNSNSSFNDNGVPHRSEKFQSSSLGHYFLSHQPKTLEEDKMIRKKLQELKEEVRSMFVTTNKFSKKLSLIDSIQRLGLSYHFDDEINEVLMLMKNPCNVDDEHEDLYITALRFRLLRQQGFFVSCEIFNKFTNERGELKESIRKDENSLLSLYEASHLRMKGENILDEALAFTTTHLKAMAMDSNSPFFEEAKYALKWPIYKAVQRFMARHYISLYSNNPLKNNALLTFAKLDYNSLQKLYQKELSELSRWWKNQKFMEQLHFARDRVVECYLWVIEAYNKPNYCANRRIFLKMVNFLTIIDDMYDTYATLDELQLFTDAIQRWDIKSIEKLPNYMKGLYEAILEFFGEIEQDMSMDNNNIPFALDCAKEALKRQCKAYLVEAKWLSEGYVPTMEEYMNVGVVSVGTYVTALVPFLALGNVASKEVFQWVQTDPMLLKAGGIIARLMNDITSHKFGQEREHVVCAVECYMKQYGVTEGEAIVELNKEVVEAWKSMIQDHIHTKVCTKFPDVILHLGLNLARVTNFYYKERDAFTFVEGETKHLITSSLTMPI

T1 sequence (A0A0A0L6G4 entry or part of it): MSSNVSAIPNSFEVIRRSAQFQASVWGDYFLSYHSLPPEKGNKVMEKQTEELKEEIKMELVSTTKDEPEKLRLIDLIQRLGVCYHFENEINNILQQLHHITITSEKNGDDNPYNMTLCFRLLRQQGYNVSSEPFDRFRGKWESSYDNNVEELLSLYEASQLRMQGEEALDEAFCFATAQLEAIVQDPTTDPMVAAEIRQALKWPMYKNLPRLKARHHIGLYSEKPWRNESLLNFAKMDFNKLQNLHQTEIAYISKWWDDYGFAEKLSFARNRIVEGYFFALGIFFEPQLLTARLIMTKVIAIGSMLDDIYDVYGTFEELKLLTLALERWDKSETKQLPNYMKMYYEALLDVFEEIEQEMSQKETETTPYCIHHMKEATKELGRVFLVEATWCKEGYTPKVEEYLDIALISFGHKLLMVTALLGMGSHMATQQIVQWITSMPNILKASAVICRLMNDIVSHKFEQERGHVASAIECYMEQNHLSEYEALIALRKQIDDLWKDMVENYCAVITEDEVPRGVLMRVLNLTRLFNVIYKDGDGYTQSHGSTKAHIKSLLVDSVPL

Row | SMILES | product formation, stir-bar GC-MS, recombinant E. coli protein (CsTPS19) | product formation, stir-bar GC-MS, recombinant E. coli protein (CsTPS12) | product formation, stir-bar GC-MS, recombinant E. coli protein (CsTPS22) | product formation, stir-bar GC-MS, recombinant E. coli protein (CsTPS24; 10 µM substrate) | product formation, stir-bar GC-MS, recombinant E. coli protein (CsTPS14) | product formation, stir-bar GC-MS, recombinant E. coli protein (CsTPS24) | product formation, stir-bar GC-MS, recombinant E. coli protein (CsTPS11) | product formation, stir-bar GC-MS, recombinant E. coli protein (CsTPS15)
1 | CC(C)=CCC/C(C)=C/CC/C(C)=C/COP(=O)(O)OP(=O)(O)O [FPP] | CsTPS19 predominantly catalysed the formation of (E,E)‐α‐farnesene from FPP | CsTPS12, CsTPS14 and CsTPS17, which all catalysed the formation of (E)‐β‐farnesene | the major products of CsTPS22 were (E)‐nerolidol and cadinol | both enzymes produced (E)‐nerolidol from FPP | CsTPS12, CsTPS14 and CsTPS17, which all catalysed the formation of (E)‐β‐farnesene |  |  | 
2 | CC(C)=CCC/C(C)=C/CC/C(C)=C/CC/C(C)=C/COP(=O)(O)OP(=O)(O)O [GGPP] |  |  |  |  |  | only CsTPS24 accepted GGPP to produce geranyl linalool |  | 
3 | CC(C)=CCC/C(C)=C/COP(=O)(O)OP(=O)(O)O [GPP] | CsTPS19 which efficiently catalysed the formation of (E)‐β‐ocimene, myrcene and linalool from GPP |  |  |  |  |  | CsTPS11 and CsTPS15 both catalysed the formation of myrcene, limonene | CsTPS11 and CsTPS15 both catalysed the formation of myrcene, limonene

Reference: paper PMC9299122, “Terpene synthases in cucumber (Cucumis sativus) and their contribution to herbivore‐induced volatile terpenoid emission” (The New Phytologist, 2021)
